Assay results: patent EP3359195B1 (AB Science, priority 2015, dated 2017)
Where two headings read alike, the source gives them in different places.

Key:
mastocytosis = details: cited from earlier work; for major response: more than 50% improvement in symptoms and signs; for overall response rate: sum of CR, MR and PR
[1] = tested on: Ba/F3 cells expressing human or mouse wild-type c-Kit; details: read-out: IC50, stem cell factor-induced proliferation and c-Kit tyrosine phosphorylation; cited from earlier work
[2] = tested on: severe systemic mastocytosis; assay: post-hoc analysis of pooled phase 2 studies AB06013 and AB04010, cohort simulating severe systemic mastocytosis; type: in vivo, human; details: for Cumulative response rate (≥75 %) from W8 to W24, Hamilton or FIS / Cumulative response rate (≥75 %) from W8 to W24, Flushes or Pruritus: 2-handicap response rate; for Cumulative response rate (≥75 %) from W8 to W24, Hamilton or FIS: at least one handicap from [Hamilton or FIS]; for Cumulative response rate (≥75 %) from W8 to W24, Flushes or Pruritus: at least one handicap from [flushes or pruritus]
[3] = tested on: Ba/F3 cells expressing the D816V c-Kit mutation; details: read-out: IC50, proliferation; cited from earlier work
[4] = entire evaluable study population (N=80)
[5] = missing data considered as failure (observed cases after W12)

## Nc1nc(Cl)nc2c1ncn2[C@H]1C[C@H](O)[C@@H](CO)O1 [Cladribine]
mastocytosis; [4]
  major response: 37%
  overall response rate: 55%
mastocytosis; patients with ISM (N=22)
  overall response rate: 56%

## NC(=O)NO [hydroxyurea]
mastocytosis; [4]
  major response: 0%
  overall response rate: 19%
mastocytosis; patients with ISM (N=22)
  overall response rate: 0%

## Cc1ccc(NC(=O)c2ccc(CN3CCN(C)CC3)cc2)cc1Nc1nccc(-c2cccnc2)n1 [imatinib mesilate]
mastocytosis; [4]
  major response: 9%
  overall response rate: 18%
mastocytosis; patients with ISM (N=22)
  overall response rate: 14%

## Cc1ccc(NC(=O)c2ccc(CN3CCN(C)CC3)cc2)cc1Nc1nc(-c2cccnc2)cs1 [masitinib, 4-(4-methylpiperazin-1-ylmethyl)-N-[4-methyl-3-(4-pyridin-3ylthiazol-2-ylamino)phenyl]benzamide]
[1]
  IC50: 0.15 ± 0.08 µM
[2]
  Cumulative response rate (≥75 %) from W8 to W24, Hamilton or FIS: ~10%
  Cumulative response rate (≥75 %) from W8 to W24, Flushes or Pruritus: approximately 40%
[2]; listed as Masitinib
  Cumulative response rate (≥75 %) from W8 to W24, Hamilton or FIS: 10.3%
  Cumulative response rate (≥75 %) from W8 to W24, Flushes or Pruritus: 38.8%
[2]; Week 12, at least one severe handicap among pruritus, flushes, fatigue or depression at baseline, missing data considered as failure, listed as Masitinib
  Overall response ≥ 75%: 25.0%
[2]; Week 12, patients with both pruritus score ≥9 and flushes per week ≥8 at baseline (4 patients, 8 handicaps)
  Overall response ≥ 75%: 1/8 (12.5%)
[2]; Week 24, at least one severe handicap among pruritus, flushes, fatigue or depression at baseline, missing data considered as failure
  Overall response ≥ 75%: 23.5%
[2]; Week 24, at least one severe handicap among pruritus, flushes, fatigue or depression at baseline, missing data considered as failure, listed as Masitinib
  Overall response ≥ 75%: 23.5%
[2]; Week 24, patients with both pruritus score ≥9 and flushes per week ≥8 at baseline (4 patients, 8 handicaps)
  Overall response ≥ 75%: 50%
[2]; at least one handicap among pruritus, flushes, fatigue or depression, W8, W12, W24
  Cumulative response rate (≥75 %) from W8 to W24, Overall Response: 26.1%
[2]; [5]
  Cumulative response rate (≥75 %) from W8 to W24, FIS only: 8.0%
  Cumulative response rate (≥75 %) from W8 to W24, Flushes only: 52.8%
  Cumulative response rate (≥75 %) from W8 to W24, Hamilton only: 16.7%
  Cumulative response rate (≥75 %) from W8 to W24, Micturition frequency (pollakiuria) only: 1.8%
  Cumulative response rate (≥75 %) from W8 to W24, Pruritus only: 28.6%
  Cumulative response rate (≥75 %) from W8 to W24, Stool frequency (diarrhea) only: 18.4%
[3]
  IC50: 5 ± 2 µM
